Data from PMC6112376, “Comprehensive Analyses and Prioritization of Tox21 10K Chemicals Affecting Mitochondrial Function by in-Depth Mechanistic Studies” (Environmental Health Perspectives, 2018).

Key:
rat primary hepatocytes [1] = tested on: rat primary hepatocytes
[2] = tested on: HeLa cells expressing YFP-Parkin; assay: Parkin translocation assay; format: cell-based, human
[3] = tested on: mitochondrial respiratory chain complex I; format: biochemical, rat
[4] = biological target: T1, mitochondrial respiratory chain complex II (Rattus norvegicus, UniProt P21913+Q641Z9+Q6PCT8+Q920L2); assay: Respiratory chain complex II activity; format: biochemical; details: tested up to 100μM
T1 construct: Submitochondrial particles were prepared by subjecting the intact rat mitochondria, isolated as described above, to three successive freeze–thaw cycles; from tissue; host or cells: rat liver mitochondria (submitochondrial particles)

HepG2 cells [5] = assay: ROS-Glo hydrogen peroxide (ROS) assay; format: cell-based, human; details: Homo sapiens, HepG2, 2 h, read-out: ROS (HepG2) EC50
[6] = tested on: p53 (p53-bla HCT-116 cells); assay: p53 β-lactamase reporter gene assay; format: cell-based, human; details: Homo sapiens; 16 h incubation; mean±SD of three experiments
[7] = tested on: mitochondrial respiratory chain complex III; format: biochemical, rat
[8] = tested on: mitochondrial respiratory chain complex IV; format: biochemical, rat
[9] = tested on: isolated rat liver mitochondria; assay: Oxygen consumption, Clark-type oxygen electrode; format: biochemical
HepG2 cells [10] = assay: Intracellular ATP content (cell viability) assay; format: cell-based, human; details: Homo sapiens, HepG2, 40 h
rat primary hepatocytes [11] = assay: MMP assay in rat primary hepatocytes; details: Rattus norvegicus, Hepatocyte, 1 h, read-out: Rat hepatocytes IC50 (MMP)
[12] = tested on: mitochondrial respiratory chain complex V; format: biochemical, rat
HepG2 cells [13] = assay: cells; details: Homo sapiens, HepG2, 1 h
[14] = tested on: Nrf2/ARE (ARE-bla HepG2 cells); assay: ARE β-lactamase reporter gene assay; format: cell-based, human; details: Homo sapiens, HepG2; 16 h incubation; mean±SD of three experiments; read-out: ARE (HepG2) EC50
hNSC = assay: MMP assay in human neural stem cells (hNSC); format: cell-based; details: Homo sapiens, Neural stem cell, 1 h, read-out: hNSC IC50 (MMP)

T1 sequence (Q920L2 35-656): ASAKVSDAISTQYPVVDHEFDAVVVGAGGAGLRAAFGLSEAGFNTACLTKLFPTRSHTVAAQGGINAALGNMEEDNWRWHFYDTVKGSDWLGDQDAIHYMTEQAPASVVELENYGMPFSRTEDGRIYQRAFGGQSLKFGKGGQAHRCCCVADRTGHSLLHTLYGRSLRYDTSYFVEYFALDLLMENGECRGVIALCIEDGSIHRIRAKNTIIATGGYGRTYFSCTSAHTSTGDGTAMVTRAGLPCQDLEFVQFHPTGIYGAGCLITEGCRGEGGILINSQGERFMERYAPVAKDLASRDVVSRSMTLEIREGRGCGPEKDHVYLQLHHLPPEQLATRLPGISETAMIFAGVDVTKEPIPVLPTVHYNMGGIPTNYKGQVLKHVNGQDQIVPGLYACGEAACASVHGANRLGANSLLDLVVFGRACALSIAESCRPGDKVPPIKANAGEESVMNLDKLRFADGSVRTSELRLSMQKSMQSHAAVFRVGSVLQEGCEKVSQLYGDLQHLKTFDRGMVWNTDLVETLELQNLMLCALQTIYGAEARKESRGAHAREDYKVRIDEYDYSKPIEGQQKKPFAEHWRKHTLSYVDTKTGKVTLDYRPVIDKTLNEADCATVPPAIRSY
T1 sequence (P21913 31-282): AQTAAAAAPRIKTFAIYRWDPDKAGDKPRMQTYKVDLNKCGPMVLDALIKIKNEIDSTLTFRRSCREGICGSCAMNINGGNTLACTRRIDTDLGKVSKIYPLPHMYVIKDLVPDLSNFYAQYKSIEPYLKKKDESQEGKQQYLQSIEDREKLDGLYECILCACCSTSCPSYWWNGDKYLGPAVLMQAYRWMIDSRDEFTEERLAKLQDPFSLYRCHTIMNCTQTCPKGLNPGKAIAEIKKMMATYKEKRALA
T1 sequence (Q641Z9 1-169): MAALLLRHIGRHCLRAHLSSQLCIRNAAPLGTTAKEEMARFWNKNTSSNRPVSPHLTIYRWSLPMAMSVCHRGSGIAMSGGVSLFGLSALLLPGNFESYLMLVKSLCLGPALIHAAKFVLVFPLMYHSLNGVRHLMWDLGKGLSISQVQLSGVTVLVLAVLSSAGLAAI
T1 sequence (Q6PCT8 57-159): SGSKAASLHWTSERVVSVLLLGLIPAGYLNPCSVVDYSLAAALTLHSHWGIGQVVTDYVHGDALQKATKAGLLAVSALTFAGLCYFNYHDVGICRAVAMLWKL

## CCCCCC[C@H]1C(=O)O[C@H](C)[C@H](NC(=O)c2cccc(NC=O)c2O)C(=O)O[C@@H](C)[C@@H]1OC(=O)CC(C)C [Antimycin A, reference compound]
Rat primary hepatocytes [1]
  Rat hepatocytes (efficacy) (MMP): 2.65±1.08 ( −94.9±3.37 ) %
[2]
  Parkin recruitment: Active
[2]; 3 h
  Parkin translocation into mitochondria (in words): significantly increased Parkin translocation into mitochondria
[3]
  Complex I % inhibition (activity call): Inactive
[4]
  Complex II % inhibition (activity call): Inactive
HepG2 cells [5]
  EC50: 6830 nM
[6]
  EC50: 310 ± 40 nM
[7]
  inhibitory effect on Complex III at (concentration): 0.032 µM
[7]; at 0.032μM
  Complex III % inhibition: 71.1±2.91 at 0.032μM %
[8]
  Complex IV % inhibition (activity call): Inactive
[9]
  Potential Mechanism: Inhibitor
  effect on mitochondrial respiration (in words): significantly inhibited both glutamate/malate-driven respiration and succinate-driven respiration
[9]; 0.00128 µM
  I-ADP, % of control (O2 consumption rate): 101 (37.5) % of control
  I-sub, % of control (O2 consumption rate): 104 (11.2) % of control
  II-ADP, % of control (O2 consumption rate): 102 (64.0) % of control
  II-sub, % of control (O2 consumption rate): 105 (19.5) % of control
[9]; 0.0064 µM
  I-ADP, % of control (O2 consumption rate): 90 (33.5) % of control
  I-sub, % of control (O2 consumption rate): 93 (10.0) % of control
  II-ADP, % of control (O2 consumption rate): 83 (52.2) % of control
  II-sub, % of control (O2 consumption rate): 92 (17.1) % of control
[9]; 0.032 µM
  I-ADP, % of control (O2 consumption rate): 59 (22.1) % of control
  I-sub, % of control (O2 consumption rate): 86 (9.3) % of control
  II-ADP, % of control (O2 consumption rate): 39 (24.5) % of control
  II-sub, % of control (O2 consumption rate): 67 (12.4) % of control
[9]; 0.16 µM
  I-ADP, % of control (O2 consumption rate): 17 (6.4) % of control
  I-sub, % of control (O2 consumption rate): 53 (5.7) % of control
  II-ADP, % of control (O2 consumption rate): 10 (6.4) % of control
  II-sub, % of control (O2 consumption rate): 36 (6.7) % of control
[9]; 0.8 µM
  I-ADP, % of control (O2 consumption rate): 16 (6.1) % of control
  I-sub, % of control (O2 consumption rate): 63 (6.8) % of control
  II-ADP, % of control (O2 consumption rate): 10 (6.4) % of control
  II-sub, % of control (O2 consumption rate): 30 (5.6) % of control
[9]; 4 µM
  I-ADP, % of control (O2 consumption rate): 13 (4.8) % of control
  I-sub, % of control (O2 consumption rate): 51 (5.5) % of control
  II-ADP, % of control (O2 consumption rate): 12 (7.5) % of control
  II-sub, % of control (O2 consumption rate): 31 (5.7) % of control
[9]; 20 µM
  I-ADP, % of control (O2 consumption rate): 15 (5.7) % of control
  I-sub, % of control (O2 consumption rate): 54 (5.8) % of control
  II-ADP, % of control (O2 consumption rate): 9 (5.8) % of control
  II-sub, % of control (O2 consumption rate): 32 (6.0) % of control
[9]; 100 µM
  I-ADP, % of control (O2 consumption rate): 9 (4.8) % of control
  I-sub, % of control (O2 consumption rate): 26 (5.6) % of control
  II-ADP, % of control (O2 consumption rate): 7 (4.0) % of control
  II-sub, % of control (O2 consumption rate): 13 (4.6) % of control
HepG2 cells [10]; read-out: ATP (HepG2, galactose) IC50
  IC50: 50 nM
HepG2 cells [10]; read-out: ATP (HepG2, glucose) IC50
  IC50: 20 nM
Rat primary hepatocytes [11]
  IC50: 2650 nM
[12]
  Complex V % inhibition (activity call): Inactive
HepG2 cells [13]; read-out: HepG2 IC50 Galactose (MMP)
  IC50: 250 nM
HepG2 cells [13]; read-out: HepG2 IC50 Glucose (MMP)
  IC50: 2790 nM
[14]
  EC50: 470 ± 420 nM
hNSC
  IC50: 2910 nM
